Assay results reported in patent US7417048B2, “Aryl-substituted derivatives of cycloalkyl and branched chain alkyl carboxylic acids useful as antinociceptive drugs for peripheral targets” (priority 2003, dated 2008).

Key:
[1] = test system: lips and nasal mucous membranes; assay: Cooling effect of suspension applied to lips and nasal mucous membranes; type: in vivo, human; conditions: for cooling effect on the lips and on breathing sensation: 20 mg/ml suspension in saline-10% Tween 80, lips and nasal mucous membranes
Source text: Sulfadiazine is used as antibiotic for urinary tract infections and its silver salt is also used a topical antibiotic for the treatment of burn wounds. One peripheral antinociceptive compound of this discovery is derived from sulfadiazine as the -ZR″ group, and has the structure illustrated by Formula 3. […] The embodiment, coded as CPS-125, also activated the TRP-M8 coolness receptor, but not TRP-A1. […] Sulfonamides are used as topical and systemic antibiotics. Generally, these drugs are used at doses of 500 mg to gram quantities, and have relatively low toxic side effects except for the risks of renal crystalluria and drug hypersensitivity reactions. […] (St. Louis, Mo.) and coupled to p-menthoyl chloride, using the chemical synthesis described above. Each compound was then tested at 20 mg/ml on the lips and nasal mucous membranes. The compounds were added to sterile saline-10% Tween 80 mixture and stirred using a glass rod until the mixture was a homogeneous suspension. Using a clean glass rod, the suspension was first applied to the lips and nasal vestibule. After this trial, a dropper was used to apply the suspension into the nostrils, at a volume of 0.06 ml in 2 droplets per nostril.

mouse TRP-M8 receptor = biological target: T1, mouse TRP-M8 receptor (Mus musculus, UniProt Q8R4D5); assay: Voltage patch-clamp of HEK cells transiently transfected with mouse TRP-M8; type: cell-based; conditions: for activity relative to icilin (integrated inward current, icilin as 100): 1 μM, applied 10 sec, at least 4 cells
T1 construct: expressed in transfected cells; host or cells: human embryonic kidney cells (transient transfection)
T1 sequence (Q8R4D5 whole entry): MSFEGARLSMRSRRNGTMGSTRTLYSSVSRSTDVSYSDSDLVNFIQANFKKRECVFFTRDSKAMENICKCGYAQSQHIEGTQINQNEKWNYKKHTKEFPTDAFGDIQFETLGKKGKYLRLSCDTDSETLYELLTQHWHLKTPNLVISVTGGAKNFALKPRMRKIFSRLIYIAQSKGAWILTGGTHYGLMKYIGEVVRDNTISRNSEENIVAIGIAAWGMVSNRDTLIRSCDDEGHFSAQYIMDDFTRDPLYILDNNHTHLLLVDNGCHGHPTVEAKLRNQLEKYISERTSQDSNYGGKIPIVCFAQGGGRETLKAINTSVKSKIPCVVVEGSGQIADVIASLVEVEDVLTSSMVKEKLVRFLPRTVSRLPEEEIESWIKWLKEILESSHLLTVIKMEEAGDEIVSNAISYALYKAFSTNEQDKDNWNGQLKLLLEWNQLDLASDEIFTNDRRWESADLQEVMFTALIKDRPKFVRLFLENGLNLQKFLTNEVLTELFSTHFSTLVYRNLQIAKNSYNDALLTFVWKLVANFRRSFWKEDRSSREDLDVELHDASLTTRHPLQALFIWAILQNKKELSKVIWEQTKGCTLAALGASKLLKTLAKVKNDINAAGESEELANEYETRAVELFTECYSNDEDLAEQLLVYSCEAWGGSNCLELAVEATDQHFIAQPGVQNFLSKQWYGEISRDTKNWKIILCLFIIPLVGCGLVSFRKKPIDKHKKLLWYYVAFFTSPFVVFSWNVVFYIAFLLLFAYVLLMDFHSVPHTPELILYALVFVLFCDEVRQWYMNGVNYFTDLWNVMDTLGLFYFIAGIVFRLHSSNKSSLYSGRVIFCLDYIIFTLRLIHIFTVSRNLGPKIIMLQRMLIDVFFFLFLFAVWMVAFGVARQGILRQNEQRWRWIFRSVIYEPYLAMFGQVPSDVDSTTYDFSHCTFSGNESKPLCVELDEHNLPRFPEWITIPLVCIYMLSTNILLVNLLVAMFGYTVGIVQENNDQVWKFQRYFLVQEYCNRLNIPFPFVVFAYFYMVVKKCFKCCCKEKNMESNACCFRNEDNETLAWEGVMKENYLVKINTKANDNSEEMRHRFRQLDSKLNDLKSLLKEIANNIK
Method: (§1) Human embryonic kidney cells were transiently transfected with the gene for the mouse TRP-M8 receptor. These cells were then voltage patch-clamped in a standard microscopic apparatus and the test solution electronically applied for 10 sec. The integrated areas of the inward current, measured in picoAmperes were then recorded. Icilin a standard cooling antinociceptive agent was used the positive control. Test substances were applied at 1 μM to at least 4 cells and the current recorded.

human TRP-M8 receptor = biological target: T2, human TRP-M8 receptor (Homo sapiens, UniProt Q7Z2W7); assay: Fura-2 calcium fluorescence in HEK cells permanently transfected with human TRP-M8; type: cell-based
T2 construct: expressed in transfected cells; host or cells: human embryonic kidney cells (permanent transfection)
T2 sequence (Q7Z2W7 whole entry): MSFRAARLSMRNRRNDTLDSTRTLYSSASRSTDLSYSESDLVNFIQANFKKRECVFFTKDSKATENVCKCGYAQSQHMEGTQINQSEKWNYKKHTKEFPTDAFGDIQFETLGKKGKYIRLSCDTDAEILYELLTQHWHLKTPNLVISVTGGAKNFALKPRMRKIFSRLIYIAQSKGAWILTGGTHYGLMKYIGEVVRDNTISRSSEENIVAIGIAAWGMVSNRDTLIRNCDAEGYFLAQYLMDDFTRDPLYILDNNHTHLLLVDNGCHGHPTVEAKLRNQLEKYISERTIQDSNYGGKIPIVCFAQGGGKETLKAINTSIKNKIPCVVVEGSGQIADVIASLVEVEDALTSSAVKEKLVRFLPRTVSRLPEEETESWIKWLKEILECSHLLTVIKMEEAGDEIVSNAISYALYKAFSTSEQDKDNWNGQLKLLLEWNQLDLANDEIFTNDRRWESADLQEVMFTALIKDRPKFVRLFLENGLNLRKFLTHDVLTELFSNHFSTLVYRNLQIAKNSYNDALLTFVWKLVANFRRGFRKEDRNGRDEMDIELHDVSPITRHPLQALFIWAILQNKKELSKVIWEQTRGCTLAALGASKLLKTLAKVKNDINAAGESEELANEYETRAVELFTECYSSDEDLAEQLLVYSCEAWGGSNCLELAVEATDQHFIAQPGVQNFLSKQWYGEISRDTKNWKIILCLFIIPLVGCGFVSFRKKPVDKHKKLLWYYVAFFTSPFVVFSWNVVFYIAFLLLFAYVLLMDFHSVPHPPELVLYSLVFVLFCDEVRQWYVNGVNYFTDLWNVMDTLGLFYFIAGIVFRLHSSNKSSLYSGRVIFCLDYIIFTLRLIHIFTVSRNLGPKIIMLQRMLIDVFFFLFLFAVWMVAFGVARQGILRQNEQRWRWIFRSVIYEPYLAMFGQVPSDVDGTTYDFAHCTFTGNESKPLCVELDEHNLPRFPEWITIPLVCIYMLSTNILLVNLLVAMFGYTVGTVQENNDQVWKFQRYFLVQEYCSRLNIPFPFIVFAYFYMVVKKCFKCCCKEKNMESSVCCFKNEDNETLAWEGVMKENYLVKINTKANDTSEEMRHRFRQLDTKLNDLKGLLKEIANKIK
Method: (§2) Human embryonic kidney cells were permanently transfected with the gene for the human TRP-M8 receptor. These cells were then incubated with a calcium fluorescence indicator (Fura-2) and incubated at either 29 or 37° C. These cells were then distributed into a 96-well fluorescence-plate image reader with automated drug dilution and computerized software for dose-response analysis. The influx of calcium upon drug stimulated was quantified in fluorescence units.

TRP-A1 = TRP-A1 (Homo sapiens, UniProt O75762); assay: TRP-A1 activation; type: cell-based
Sequence of TRP-A1 (O75762 whole entry, species assumed): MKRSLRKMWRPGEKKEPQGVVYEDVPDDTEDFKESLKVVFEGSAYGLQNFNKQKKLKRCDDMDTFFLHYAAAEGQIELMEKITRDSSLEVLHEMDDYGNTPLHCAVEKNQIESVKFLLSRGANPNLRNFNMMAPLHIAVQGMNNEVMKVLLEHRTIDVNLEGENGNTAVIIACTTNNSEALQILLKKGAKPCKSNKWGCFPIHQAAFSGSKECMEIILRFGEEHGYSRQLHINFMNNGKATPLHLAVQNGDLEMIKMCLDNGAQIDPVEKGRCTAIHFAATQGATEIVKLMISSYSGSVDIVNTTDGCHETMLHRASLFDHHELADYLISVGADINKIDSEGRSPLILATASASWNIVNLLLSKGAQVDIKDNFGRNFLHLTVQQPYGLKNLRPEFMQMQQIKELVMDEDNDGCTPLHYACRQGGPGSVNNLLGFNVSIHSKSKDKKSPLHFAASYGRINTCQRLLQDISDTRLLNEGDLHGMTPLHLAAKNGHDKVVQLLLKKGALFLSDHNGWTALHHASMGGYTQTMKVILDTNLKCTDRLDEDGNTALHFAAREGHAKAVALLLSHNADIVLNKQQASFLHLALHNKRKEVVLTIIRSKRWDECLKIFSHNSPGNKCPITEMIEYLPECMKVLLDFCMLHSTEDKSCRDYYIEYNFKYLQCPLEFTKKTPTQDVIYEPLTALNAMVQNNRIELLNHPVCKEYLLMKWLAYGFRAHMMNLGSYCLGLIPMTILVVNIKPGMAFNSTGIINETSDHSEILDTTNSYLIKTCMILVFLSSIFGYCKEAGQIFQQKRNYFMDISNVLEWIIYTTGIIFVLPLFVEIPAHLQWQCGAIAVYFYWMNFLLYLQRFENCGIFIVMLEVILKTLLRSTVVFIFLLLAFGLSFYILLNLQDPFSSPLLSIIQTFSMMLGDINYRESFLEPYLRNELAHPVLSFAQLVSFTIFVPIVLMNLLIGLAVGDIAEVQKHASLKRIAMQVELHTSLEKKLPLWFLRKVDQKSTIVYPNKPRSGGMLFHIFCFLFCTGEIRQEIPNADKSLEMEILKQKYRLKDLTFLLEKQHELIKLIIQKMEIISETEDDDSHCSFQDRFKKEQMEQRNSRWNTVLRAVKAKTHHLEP

TRP-M8 coolness receptor = TRP-M8 coolness receptor (Homo sapiens, UniProt Q7Z2W7); assay: TRP-M8 coolness receptor activation (summary statement); type: cell-based
Sequence of TRP-M8 coolness receptor (Q7Z2W7 whole entry): as the sequence (Q7Z2W7 whole entry) above
Method: as §1
as §2, with “units. […] The EC50 of CPS-125 in this test system was 6 μM and for the sulfodimethoxinyl- derivative, it was 60 μM.” for “units.”

[2] = cited from earlier work

Row | SMILES | cooling effect on the lips and on breathing sensation [1] | pKa [2] | also measured
1 | CC1CCC(C(C)C)C(C(=O)Nc2ccc(S(=O)(=O)Nc3ncccn3)cc2)C1 (stereo not shown) [CPS-125, 2-Isopropyl-5-methyl-cyclohexanecarboxylic acid [4-(pyrimidin-2-ylsulfamoyl)-phenyl]-amide] | gentle, cooling refreshing effect |  | duration of cooling effect ([1]; 1 mg per nostril, 0.06 ml in 2 droplets per nostril): up to 3 hr; activity relative to icilin (integrated inward current, icilin as 100) (mouse TRP-M8 receptor): 41%; EC50 (mouse TRP-M8 receptor; patch-clamp dose-response, read-out: EC50 for full activation of the receptor): 2 µM; ΔFmax (maximum fluorescence increase at the maximum concentration tested) (human TRP-M8 receptor; Fura-2 fluorescence units): 14,000 units; activation of TRP-A1 (TRP-A1): not; activation of TRP-M8 coolness receptor (TRP-M8 coolness receptor): activated
2 | Nc1ccc(S(=O)(=O)Nc2nncs2)cc1 [S-1,3,4-thiadiazole] |  | 4.77 | 
3 | COc1cnc(NS(=O)(=O)c2ccc(NC(=O)C3CC(C)CCC3C(C)C)cc2)nc1 (stereo not shown) [sulfameter analog] | moderate activities |  | 
4 | COc1ccc(NS(=O)(=O)c2ccc(NC(=O)C3CC(C)CCC3C(C)C)cc2)nn1 (stereo not shown) [sulfamethoxypyridazine analog] | moderate activities |  | 
5 | COc1cc(NS(=O)(=O)c2ccc(NC(=O)C3CC(C)CCC3C(C)C)cc2)nc(OC)n1 (stereo not shown) [sulfadimethoxine analog] | slightly active |  | EC50 (human TRP-M8 receptor; Fura-2, 29 or 37° C., 96-well plate reader, read-out: EC50 (median effective concentration, calcium influx)): 60 µM
6 | Nc1ccc(S(=O)(=O)NC(=O)CCl)cc1 [N1-chloroacetylsulfanilamide] |  | 3.79 | 
7 | Nc1ccc(C(=O)NS(=O)(=O)c2ccc(N)cc2)cc1 [N1-p-aminobenzoylsulfanilamide] |  | 5.20 | 
8 | Cc1noc(NS(=O)(=O)c2ccc(NC(=O)C3CC(C)CCC3C(C)C)cc2)c1C (stereo not shown) [sulfisoxazole analog] | slightly active |  | 
9 | Nc1ccc(S(=O)(=O)Nc2nccs2)cc1 [sulfathiazole] |  | 7.12 | 
10 | Nc1ccc(S(=O)(=O)Nc2ccccn2)cc1 [sulfapyridine] |  | 8.43 | 
11 | CC1CCC(C(C)C)C(C(=O)Nc2ccc(S(N)(=O)=O)cc2)C1 (stereo not shown) [CPS-126] | inactive |  | activity relative to icilin (integrated inward current, icilin as 100) (mouse TRP-M8 receptor): 2%
